Experimental data as given in patent publication US8618095B2 (Rigel Pharmaceuticals, Inc., priority 2010, dated 2013).
Where a name gives a salt, the structure may show the parent alone.

test system: Human mast cells (CHMC); assay: LD Tryptase release assay in CHMC (mast cell activation induced by FcγR cross-linking); type: cell-based; settings: Homo sapiens, Mast cell, anti-IgG stimulation, activity of tryptase released upon degranulation
Protocol: Compounds were assayed for inhibition of mast cell activation induced by FcγR cross-linking by measuring the activity of tryptase released upon degranulation as follows:
Human mast cells were cultured and differentiated from […] progenitor cell as described in U.S. Patent Publication No. 2005-234049, incorporated herein by reference. For example, 65 μL of various concentrations of the compound to be assayed were prepared in MT (137 mM NaCl, 2.7 mM KCl, 1.8 mM CaCl2, 1.0 mM MgCl2, 5.6 mM Glucose, 20 mM Hepes (pH 7.4), 0.1% Bovine Serum Albumin, (Sigma A4503)) containing 2% MeOH and 1% DMSO, or control buffer were added to duplicate 96-well V-bottom plates. Pelleted and re-suspended (in warm MT) CHMC cells (65 μL) were added to each 96-well plate, mixed and incubated for 1 hour at 37° C. 25 μl of 6× anti-IgG Rabbit anti-human IgG, Affinity purified (Bethyl Laboratories Cat No. A80-105A3) final concentration 1 μg/mL, was added to the test wells. MT (25 μL) was added to control wells. After a 60-minute incubation at 37° C., cells and cell debris were pelleted by centrifugation at 1000 rpm for 10 min and tryptase and leukotriene C4 levels were measured.
To measure tryptase levels, 25 μL of supernatant from each well was transferred to a fresh 96-well black bottom plate, to which 100 μL of fresh tryptase substrate solution [(Z-Ala-Lys-Arg-AMC2TFA; Enzyme Systems Products, #AMC-246)] 1:2000 in tryptase assay buffer [0.1 M Hepes (pH 7.5), 10% w/v Glycerol, 10 μM Heparin (Sigma H-4898) 0.01% NaN3] was added. After 30 minute incubation at room temperature, the optical density of the plates is measured at 355 nm/460 nm on a spectrophotometric plate reader. Table 1 provides the IC50 values.
Compounds of the disclosure were assayed for their ability to inhibit mast cell activation induced by FcγR cross-linking by measuring the activity of tryptase released upon degranulation. The IC50 values for the LD Tryptase assay are presented in Table 2, in which “0” is >100 μM; “A” is 1-100 μM; “B” is 0.5-1 μM; “C” is 0.1-0.5 μM; and “D” is less than 0.1 μM: […]

Compound	IC50 [nM]
COC1CN(c2ccc(Nc3ncc(F)c(Nc4ccc5c(n4)NC(=O)C(C)(C)O5)n3)cn2)C1 [Compound 69, N4-(2,2-dimethyl-3,4-dihydro-3-oxo-2H-pyrido[3,2-b][1,4]oxazin-6-yl)-5-fluoro-N2-[6-(3-methoxyazetidin-1-yl)pyridin-3-yl]-2,4-pyrimidinediamine]	> 100000
CCN(CC)C1CCN(c2ccc(Nc3ncc(F)c(Nc4ccc5c(n4)NC(=O)C(C)(C)O5)n3)cn2)CC1 [Compound 61, N4-(2,2-dimethyl-3,4-dihydro-3-oxo-2H-pyrido[3,2-b][1,4]oxazin-6-yl)-5-fluoro-N2-[6-(4-(diethylamino)piperidin-1-yl)pyridin-3-yl]-2,4-pyrimidinediamine]	100 to 500
O=C1COc2ccc(Nc3nc(Nc4ccc5c(c4)OCC4COCCN54)ncc3F)nc2N1 (stereo not drawn) [Compound 84, N4-(3,4-dihydro-3-oxo-2H-pyrido[3,2-b][1,4]oxazin-6-yl)-5-fluoro-N2-[1,2,4a,5-tetrahydro-4H-[1,4]oxazino[3,4-c][1,4]benzoxazin-8-yl]-2,4-pyrimidinediamine]	100 to 500
CC1(C)Oc2ccc(Nc3nc(Nc4ccc(N5CCC6(CCOC6)CC5)cc4)ncc3F)nc2NC1=O [Compound 157, N4-(2,2-dimethyl-3,4-dihydro-3-oxo-2H-pyrido[3,2-b][1,4]oxazin-6-yl)-5-fluoro-N2-[4-(2-oxa-8-azaspiro[4.5]decan-8-yl)phenyl]-2,4-pyrimidinediamine]	100 to 500
CC1(C)CN(c2ccc(Nc3ncc(F)c(Nc4ccc5c(n4)NC(=O)C4(CCC4)O5)n3)cc2)CCO1 [Compound 124, N2-[4-(2,2-Dimethylmorpholino)phenyl]-5-fluoro-N4-(3′-oxo-3′,4′-dihydrospiro[cyclobutane-1,2′-pyrido[3,2-b][1,4]oxazine]-6-yl)-2,4-pyrimidinediamine]	1000 to 100000
C[C@H]1CN(c2ccc(Nc3ncc(F)c(Nc4ccc5c(n4)NC(=O)CO5)n3)cn2)CCO1 [Compound 93, N4-(3,4-dihydro-3-oxo-2H-pyrido[3,2-b][1,4]oxazin-6-yl)-5-fluoro-N2-[6-((2S)-2-methylmorpholino)pyridin-3-yl]-2,4-pyrimidinediamine]	100 to 500
C=C1COCCN1c1ccc(Nc2ncc(F)c(Nc3ccc4c(n3)NC(=O)C(C)(C)O4)n2)cn1 [Compound 58, N4-(2,2-dimethyl-3,4-dihydro-3-oxo-2H-pyrido[3,2-b][1,4]oxazin-6-yl)-5-fluoro-N2-[6-(3-methylenemorpholino)pyridin-3-yl]-2,4-pyrimidinediamine]	1000 to 100000
O=C1COc2ccc(Nc3nc(Nc4ccc(N5CC[C@H](O)C5)nc4)ncc3F)nc2N1 [Compound 63, N4-(3,4-dihydro-3-oxo-2H-pyrido[3,2-b][1,4]oxazin-6-yl)-5-fluoro-N2-[6-((3S)-3-hydroxypyrrolidin-1-yl)pyridin-3-yl]-2,4-pyrimidinediamine]	100 to 500
CC1(C)Oc2ccc(Nc3nc(Nc4ccc(N5CCOCC5CO)c(F)c4)ncc3F)nc2NC1=O (stereo not drawn) [Compound 89, N4-(2,2-dimethyl-3,4-dihydro-3-oxo-2H-pyrido[3,2-b][1,4]oxazin-6-yl)-5-fluoro-N2-[3-fluoro-4-(3-(hydroxymethyl)morpholino)phenyl]-2,4-pyrimidinediamine]	100 to 500
CC1(C)Oc2ccc(Nc3nc(Nc4ccc(N5CCC(C#N)CC5)cc4)ncc3F)nc2NC1=O [Compound 154, N4-(2,2-dimethyl-3,4-dihydro-3-oxo-2H-pyrido[3,2-b][1,4]oxazin-6-yl)-5-fluoro-N2-[4-(4-cyanopiperidin-1-yl)phenyl]-2,4-pyrimidinediamine]	100 to 500
CCOC1CCN(c2ccc(Nc3ncc(F)c(Nc4ccc5c(n4)NC(=O)C(C)(C)O5)n3)cc2)CC1 [Compound 85, N4-(2,2-dimethyl-3,4-dihydro-3-oxo-2H-pyrido[3,2-b][1,4]oxazin-6-yl)-5-fluoro-N2-[4-(4-ethoxypiperidin-1-yl)phenyl]-2,4-pyrimidinediamine]	100 to 500

Further lines, results first:

IC50 [nM]	Compound
< 100	Cc1cc(Nc2ncc(F)c(Nc3ccc4c(n3)NC(=O)C(C)(C)O4)n2)ccc1N1C[C@@H]2C[C@H]1CO2 [Compound 24, N4-(2,2-dimethyl-3,4-dihydro-3-oxo-2H-pyrido[3,2-b][1,4]oxazin-6-yl)-5-fluoro-N2-[3-methyl-4-((1S,4S)-5-oxa-2-aza-bicyclo[2.2.1]heptan-2-yl)phenyl]-2,4-pyrimidinediamine]
100 to 500	CCN(CC)C1CCN(c2ccc(Nc3ncc(F)c(Nc4ccc5c(n4)NC(=O)C(C)(C)O5)n3)cc2)CC1 [Compound 88, N4-(2,2-dimethyl-3,4-dihydro-3-oxo-2H-pyrido[3,2-b][1,4]oxazin-6-yl)-5-fluoro-N2-[4-(4-(diethylamino)piperidin-1-yl)phenyl]-2,4-pyrimidinediamine]
< 100	O=C1COc2ccc(Nc3nc(Nc4ccc(N5CCO[C@H](CCO)C5)cc4)ncc3F)nc2N1 (stereo in doubt) [Compound 125, N4-(3,4-dihydro-3-oxo-2H-pyrido[3,2-b][1,4]oxazin-6-yl)-5-fluoro-N2-[4-((2-hydroxyethyl)morpholino)phenyl]-2,4-pyrimidinediamine]
< 100	CC1(C)CN(c2ccc(Nc3ncc(F)c(Nc4ccc5c(n4)NC(=O)C(C)(C)O5)n3)cc2)CCO1 [Compound 116, N4-(2,2-dimethyl-3,4-dihydro-3-oxo-2H-pyrido[3,2-b][1,4]oxazin-6-yl)-N2-[4-(2,2-dimethylmorpholino)phenyl]-5-fluoro-2,4-pyrimidinediamine]
< 100	CC1(C)Oc2ccc(Nc3nc(Nc4ccc(N5CC[C@@H](F)C5)nc4)ncc3F)nc2NC1=O [Compound 136, (R)—N4-(2,2-dimethyl-3,4-dihydro-3-oxo-2H-pyrido[3,2-b][1,4]oxazin-6-yl)-5-fluoro-N2-[6-(3-fluoropyrrolidin-1-yl)pyrid-3-yl]-2,4-pyrimidinediamine]
< 100	O=C1COc2ccc(Nc3nc(Nc4ccc(N5CCOCC5)c(F)c4)ncc3F)nc2N1 [Compound 34, N4-(3,4-dihydro-3-oxo-2H-pyrido[3,2-b][1,4]oxazin-6-yl)-5-fluoro-N2-[3-fluoro-4-morpholinophenyl]-2,4-pyrimidinediamine]
< 100	CCCN1C(=O)COc2ccc(Nc3nc(Nc4ccc(N5CCOCC5)c(C(F)(F)F)c4)ncc3F)nc21 [Compound 148, N4-(3,4-dihydro-3-oxo-4-propyl-2H-pyrido[3,2-b][1,4]oxazin-6-yl)-5-fluoro-N2-[4-morpholino-3-(trifluoromethyl)phenyl]-2,4-pyrimidinediamine]
< 100	[2H]C1([2H])OC([2H])([2H])C([2H])([2H])N(c2ccc(Nc3ncc(F)c(Nc4ccc5c(n4)NC(=O)C(C)(C)O5)n3)cn2)C1([2H])[2H] [Compound 107, N4-(2,2-dimethyl-3,4-dihydro-3-oxo-2H-pyrido[3,2-b][1,4]oxazin-6-yl)-5-fluoro-N2-[6-(2,2,3,3,5,5,6,6-d8-morpholino)pyridin-3-yl]-2,4-pyrimidinediamine]
< 100	CC1(C)Oc2ccc(Nc3nc(Nc4ccc(N5CCO[C@@H](CO)C5)cc4)ncc3F)nc2NC1=O [Compound 128, N4-(2,2-dimethyl-3,4-dihydro-3-oxo-2H-pyrido[3,2-b][1,4]oxazin-6-yl)-5-fluoro-N2-[4-((2-hydroxymethyl)morpholino)phenyl]-2,4-pyrimidinediamine]
< 100	C[C@H]1COCCN1c1ccc(Nc2ncc(F)c(Nc3ccc4c(n3)NC(=O)CO4)n2)cc1 [Compound 119, N4-(3,4-dihydro-3-oxo-2H-pyrido[3,2-b][1,4]oxazin-6-yl)-5-fluoro-N2-[4-((3S)-3-methylmorpholino)phenyl]-2,4-pyrimidinediamine]
< 100	CC1(C)Oc2ccc(Nc3nc(Nc4ccc(N5CCC(O)CC5)nc4)ncc3F)nc2NC1=O [Compound 52, N4-(2,2-dimethyl-3,4-dihydro-3-oxo-2H-pyrido[3,2-b][1,4]oxazin-6-yl)-5-fluoro-N2-[6-(4-hydroxypiperidin-1-yl)pyridin-3-yl]-2,4-pyrimidinediamine]

same assay, conditions: Mast cell, anti-IgG stimulation, activity of tryptase released upon degranulation

Compound	IC50 [nM]
CC1(C)Oc2ccc(Nc3nc(Nc4ccc(N5CCOCC5)cc4)ncc3F)nc2N(COP(=O)(O)O)C1=O [Compound 2, N4-(2,2-dimethyl-3,4-dihydro-4-[(dihydrogenphosphonoxy)methyl]-3-oxo-2H-pyrido[3,2-b][1,4]oxazin-6-yl)-5-fluoro-N2-(4-morpholinophenyl)-2,4-pyrimidinediamine]	1000 to 100000

same assay, conditions: anti-IgG stimulation, activity of tryptase released upon degranulation

IC50 [nM]	Compound
500 to 1000	CC1(C)Oc2ccc(Nc3nc(Nc4ccc(N5CCOCC5)nc4)ncc3F)nc2NC1=O [Compound 140, N4-(2,2-dimethyl-3,4-dihydro-3-oxo-2H-pyrido[3,2-b][1,4]oxazin-6-yl)-5-fluoro-N2-[6-morpholinopyridin-3-yl]-2,4-pyrimidinediamine hydrochloric acid salt]
